Assay results from patent US20230219951A1, “PYRIDINE-PYRIMIDINE DERIVATIVE, PREPARATION METHOD THEREFOR AND PHARMACEUTICAL USE THEREOF” (Jiangsu Hengrui Pharmaceuticals Co., Ltd., priority 2020, published 2023).

What was measured:
[1] = biological target: T1, interaction between the KRAS protein subtype G12D and the SOS1 protein (Homo sapiens, UniProt Q07889); experiment: Inhibition of the interaction between KRAS G12D and SOS1 protein (AlphaLISA/AlphaScreen); format: binding; conditions: KRAS G12D + GST-TEV-SOS1(564-1049) + GDP
T1 construct: GST-TEV-SOS1(564-1049) (Viva Biotech, SOS1-191010); purchased SOS1: Viva Biotech; KRAS: Shanghai Panchao Biotechnology Co., Ltd. SOS1-191010
T1 sequence (Q07889 564-1049): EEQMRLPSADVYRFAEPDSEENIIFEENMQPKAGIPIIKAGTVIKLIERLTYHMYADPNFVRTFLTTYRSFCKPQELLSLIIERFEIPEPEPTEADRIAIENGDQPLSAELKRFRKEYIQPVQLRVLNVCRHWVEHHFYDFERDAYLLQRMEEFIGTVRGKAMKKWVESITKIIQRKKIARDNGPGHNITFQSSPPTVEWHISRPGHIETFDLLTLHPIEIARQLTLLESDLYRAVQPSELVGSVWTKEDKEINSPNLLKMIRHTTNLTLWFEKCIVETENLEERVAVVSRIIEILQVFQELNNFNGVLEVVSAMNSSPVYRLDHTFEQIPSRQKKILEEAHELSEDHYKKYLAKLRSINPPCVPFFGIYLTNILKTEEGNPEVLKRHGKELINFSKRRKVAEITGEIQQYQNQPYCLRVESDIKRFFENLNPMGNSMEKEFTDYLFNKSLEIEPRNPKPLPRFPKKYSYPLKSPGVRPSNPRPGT
Experimental: (§1) Test Example 1: Inhibitory Ability of Compounds of the Present Disclosure to the Interaction Between the KRAS Protein Subtype G12D or G12V and the SOS1 Protein. The inhibitory ability of the compounds of the present disclosure to the interaction between the KRAS protein subtype G12D or G12V and the SOS1 protein was determined by the following method. The experimental method was briefly described as follows:
(§2) 1. The experimental buffer was prepared prior to the start of the experiment: 1×PBS+0.1% BSA+0.05% tween 20.
(§3) 2. KRAS G12D and KRAS-G12V proteins were labeled with biotin using the biotin labeling kit.
(§4) 1. Firstly, the biotin-labeled KRAS G12D or KRAS G12V protein was mixed and incubated with the SOS1 protein and GDP for later use.
(§5) 2. AlphaLISA glutathione acceptor beads and AlphaScreen streptavidin donor beads were mixed at a ratio of 1:1 to make the concentration of 40 μg/mL for later use.
(§6) 3. The compound was formulated with the experimental buffer to obtain 10 concentration points by 5-fold gradient dilution from an initial concentration of 40 μM.
(§7) 4. In the 384-well microplate, 10 μL of a mixture of KRAS G12D or KRAS G12V protein and SOS1 and GDP and 5 μL of the diluted compound were added to each well and incubated at room temperature for 30 min away from the light.
(§8) 5. Then, 5 μL of a mixture of AlphaLISA glutathione acceptor beads and AlphaScreen streptavidin donor beads was added to each well and incubated at room temperature for 60 min away from the light.
(§9) 6. The fluorescence values were read on a multi-mode microplate reader.
(§10) 7. IC50 values of the compounds were calculated using Graphpad Prism.

[2] = biological target: T2, interaction between the KRAS protein subtype G12V and the SOS1 protein (Homo sapiens, UniProt Q07889); experiment: Inhibition of the interaction between KRAS G12V and SOS1 protein (AlphaLISA/AlphaScreen); format: binding; conditions: KRAS G12V + GST-TEV-SOS1(564-1049) + GDP
T2 construct: GST-TEV-SOS1(564-1049) (Viva Biotech, SOS1-191010); purchased SOS1: Viva Biotech; KRAS: Shanghai Panchao Biotechnology Co., Ltd. SOS1-191010
T2 sequence (Q07889 564-1049): T1 sequence (Q07889 564-1049)
Experimental: as §1, §2, §3, §4, §5, §6, §7, §8, §9, §10

[3] = tested on: ERK phosphorylation of H358 cells; experiment: Inhibition of ERK phosphorylation of H358 cells (HTRF pERK/total ERK); format: cell-based; conditions: Homo sapiens, NCI-H358, 1 h incubation, pERK/total ERK ratio
Experimental: This experiment is intended to evaluate the inhibition effect of the compounds of the present disclosure on the KRAS target (containing the G12C mutation) according to IC50 by determining the inhibition effect of the compounds on ERK phosphorylation of the cells.
H358 cells (ATCC, CRL-5807) were cultured in RPMI1640 (Hyclone, SH30809.01) complete medium containing 10% fetal bovine serum. On the first day of the experiment, the H358 cells were seeded into a 96-well plate at a density of 25,000 cells/well with a complete medium to form 190 μL of cell suspension per well. The plate was incubated overnight in a cell incubator at 37° C. with 5% CO2. The next day, 10 μL of test compound diluted in a gradient prepared with the complete medium was added to each well. The final concentrations of the compound were 9 concentration points obtained by 5-fold gradient dilution from 10 μM. A blank control containing 0.1% DMSO was set. The plate was incubated in a cell incubator at 37° C. with 5% CO2 for 1 h. 1 h later, the 96-well cell culture plate was taken out, the medium was removed by pipetting, 200 μL PBS (Shanghai BasalMedia Technologies Co., Ltd., B320) was added to each well, and the cells were washed once. PBS was removed by pipetting, 50 μL of lysis buffer (Cisbio, 64KL1FDF) containing a blocking reagent (Cisbio, 64KB1AAC) was added to each well, and the plate was shaken on a shaker at room temperature for 40 min for lysis. After lysis, the lysate was pipetted and mixed well, 16 μL of lysate was transferred from each well to each of two HTRF 96-well assay plates (Cisbio, 66PL96100), and then 4 μL of premixed phospho-ERK1/2 antibody solution (Cisbio, 64AERPEG) or 4 μL of premixed total-ERK1/2 antibody solution (Cisbio, 64NRKPEG) was added to each of the two plates. The microplate was sealed with a sealing membrane, centrifuged for 1 min in a microplate centrifuge, and incubated overnight at room temperature away from the light. On the third day, the fluorescence values at an excitation wavelength of 337 nm and at emission wavelengths of 665 nm and 620 nm were read using a PHERAstar multi-mode microplate reader (BMG Labtech, S/N 471-0361).
IC50 values for inhibitory activity of the compounds were calculated using Graphpad Prism software based on compound concentrations and pERK/total ERK ratio.

H358 cells = experiment: Inhibition of proliferation of H358 cells (CellTiter-Glo 3D); format: cell-based; conditions: Homo sapiens, NCI-H358, low adsorption plate, 120 h
Experimental: This example is intended to evaluate the inhibition effect of the compounds of the present disclosure on the KRAS target (containing the G12C mutation) by testing the inhibition effect of the compounds of the present disclosure on the proliferation of H358 cells.
H358 cells (ATCC, CRL-5807) were cultured in a complete medium, namely RPMI1640 medium (Hyclone, SH30809.01) containing 10% fetal bovine serum (Corning, 35-076-CV). On the first day of the experiment, the H358 cells were seeded into a 96-well low adsorption plate (Coming, CLS7007-24EA) at a density of 1500 cells/well with a complete medium to form 90 μL of cell suspension per well. The plate was centrifuged at 2000 rpm for 5 min at room temperature and then incubated overnight in a cell incubator at 37° C. with 5% CO2. The next day, 10 μL of test compound diluted in a gradient prepared with the complete medium was added to each well. The final concentrations of the compound were 9 concentration points obtained by 5-fold gradient dilution from 10 μM. A blank control containing 0.1% DMSO was set. The plate was incubated in a cell incubator at 37° C. with 5% CO2 for 120 h. On the seventh day, the 96-well cell culture plate was taken out and 50 μL of CellTiter-Glo® 3D reagent (Promega, G9682) was added into each well. The plate was shaken at room temperature for 25 min, pipetted and mixed well, from which 50 μL of the mixture was transferred into a white impermeable 96-well plate (PE, 6005290). The luminescence signal values were read using a multi-mode microplate reader (PerkinElmer, VICTOR 3).
IC50 values for the inhibitory activity of the compounds were calculated using Graphpad Prism software.

Structure (SMILES)	IC50 [1]	IC50 [2]	IC50 [3]	IC50 (H358 cells)
Cc1nc(N[C@H](C)c2cccc3c2OCC3(F)F)c2cc([C@]3(O)CC[C@H](O)CC3)c(=O)[nH]c2n1 (racemic) [Example 25-p2, rac-4-(((R)-1-(3,3-difluoro-2,3-dihydrobenzofuran-7-yl)ethyl)amino)-6-((1r,4R)-1,4-dihydroxycyclohexyl)-2-methylpyrido[2,3-d]pyrimidin-7(8H)-one]	37 nM	65 nM	489 nM	1020 nM
Cc1nc(N[C@H](C)c2cccc(C(F)(F)CO)c2F)c2cc(C3=CCOCC3)c(=O)[nH]c2n1 [Example 1, (R)-4-((1-(3-(1,1-difluoro-2-hydroxyethyl)-2-fluorophenyl)ethyl)amino)-6-(3,6-dihydro-2H-pyran-4-yl)-2-methylpyrido[2,3-d]pyrimidin-7(8H)-one]	22 nM	54 nM	59 nM	34 nM
CC(=O)N1CC=C(c2cc3c(N[C@H](C)c4cc(N)cc(C(F)(F)F)c4)nc(C)nc3[nH]c2=O)CC1 [Example 4, (R)-6-(1-acetyl-1,2,3,6-tetrahydropyridin-4-yl)-4-((1-(3-amino-5-(trifluoromethyl)phenyl)ethyl)amino)-2-methylpyrido[2,3-d]pyrimidin-7(8H)-one]	17 nM	67 nM	41 nM	97 nM
CC(=O)N1CCC(O)(c2cc3c(N[C@H](C)c4cccc(C(F)F)c4F)nc(C)nc3[nH]c2=O)CC1 [Example 12, (R)-6-(1-acetyl-4-hydroxypiperidin-4-yl)-4-((1-(3-(difluoromethyl)-2-fluorophenyl)ethyl)amino)-2-methylpyrido[2,3-d]pyrimidin-7(8H)-one]	14 nM	50 nM	48 nM	55 nM
Cc1nc(N[C@H](C)c2cccc(C(F)F)c2F)c2cc(N3CCOCC3)c(=O)[nH]c2n1 [Example 16, (R)-4-((1-(3-(difluoromethyl)-2-fluorophenyl)ethyl)amino)-2-methyl-6-morpholinopyrido[2,3-d]pyrimidin-7(8H)-one]	39 nM	136 nM	218 nM	97 nM
Cc1nc(N[C@H](C)c2cccc(C(F)F)c2F)c2cc(C3CCN(C(=O)CC#N)CC3)c(=O)[nH]c2n1 [Example 17, (R)-3-(4-(4-((1-(3-(difluoromethyl)-2-fluorophenyl)ethyl)amino)-2-methyl-7-oxo-7,8-dihydropyrido[2,3-d]pyrimidin-6-yl)piperidin-1-yl)-3-oxopropanenitrile]	28 nM	30 nM	79 nM	65 nM
Cc1nc(N[C@H](C)c2cccc(C(F)F)c2F)c2cc([C@]3(O)CC[C@H](O)CC3)c(=O)[nH]c2n1 [Example 18-p2, 4-(((R)-1-(3-(difluoromethyl)-2-fluorophenyl)ethyl)amino)-6-((1r,4R)-1,4-dihydroxycyclohexyl)-2-methylpyrido[2,3-d]pyrimidin-7(8H)-one]	40 nM	112 nM	222 nM	213 nM
COCC(=O)N1CCC(c2cc3c(N[C@H](C)c4cccc(C(F)F)c4F)nc(C)nc3[nH]c2=O)CC1 [Example 20, (R)-4-((1-(3-(difluoromethyl)-2-fluorophenyl)ethyl)amino)-6-(1-(2-methoxyacetyl)piperidin-4-yl)-2-methylpyrido[2,3-d]pyrimidin-7(8H)-one]	19 nM	60 nM	78 nM	118 nM
Cc1nc(N[C@H](C)c2cccc(C(F)F)c2F)c2cc(C3(O)CCN(C(=O)CC#N)CC3)c(=O)[nH]c2n1 [Example 21, (R)-3-(4-(4-((1-(3-(difluoromethyl)-2-fluorophenyl)ethyl)amino)-2-methyl-7-oxo-7,8-dihydropyrido[2,3-d]pyrimidin-6-yl)-4-hydroxypiperidin-1-yl)-3-oxopropanenitrile]	15 nM	54 nM	87 nM	62 nM
Cc1nc(N[C@H](C)c2cccc(C(F)F)c2F)c2cc(OC3CN(C(=O)CF)C3)c(=O)[nH]c2n1 [Example 27, (R)-4-((1-(3-(difluoromethyl)-2-fluorophenyl)ethyl)amino)-6-((1-(2-fluoroacetyl)azetidin-3-yl)oxy)-2-methylpyrido[2,3-R]pyrimidin-7(8H)-one]	20 nM	52 nM	258 nM	202 nM
Cc1nc(N[C@H](C)c2cccc(C(F)F)c2F)c2cc([C@]3(O)CC[C@@H](O)CC3)c(=O)n(C)c2n1 [Example 28-p1, 4-(((R)-1-(3-(difluoromethyl)-2-fluorophenyl)ethyl)amino)-6-((1s,4S)-1,4-dihydroxycyclohexyl)-2,8-dimethylpyrido[2,3-d]pyrimidin-7(8H)-one]	100 nM	97 nM	231 nM	243 nM
